# Measurements published in ChEMBL document CHEMBL3045557, “A new benzil derivative from Derris scandens: Structure-insecticidal activity study” (2010).
# The source made the active and inactive calls. The rule behind the calls is not given here.
# What was measured:
# Achaea janata [1] = test: Insecticidal activity against Achaea janata assessed as adult emergence at 2 ug/larva administered through topical application (reference value: 98.8 +/- 0.5 %); format: functional
# Achaea janata [2] = test: Insecticidal activity against Achaea janata assessed as larval duration at 2 ug/larva administered through topical application (reference value: 7.3 +/- 0.1 days); format: functional
# Achaea janata [3] = test: Antifeedant activity against Achaea janata by conventional no-choice disk method; format: functional
# Achaea janata [4] = test: Toxicity against Achaea janata after 24 hr by leaf disk method; format: functional
# Achaea janata [5] = test: Antifeedant activity against Achaea janata at 10 ug/cm2 by conventional no-choice disk method; format: functional
# Achaea janata [6] = test: Insecticidal activity against Achaea janata assessed as adult deformity at 4 ug/larva administered through topical application; format: functional
# Achaea janata [7] = test: Insecticidal activity against Achaea janata assessed as pupal duration at 2 ug/larva administered through topical application (reference value: 10.3 +/- 0.1 days); format: functional
# Achaea janata [8] = test: Insecticidal activity against Achaea janata assessed as adult deformity at 2 ug/larva administered through topical application; format: functional
# Achaea janata [9] = test: Toxicity against Achaea janata at 10 ug/cm2 after 24 hr by leaf disk method; format: functional
# Achaea janata [10] = test: Insecticidal activity against Achaea janata assessed as pupal mortality at 2 ug/larva administered through topical application; format: functional
# Achaea janata [11] = test: Insecticidal activity against Achaea janata assessed as pupal weight at 4 ug/larva administered through topical application (reference value: 696.4 +/- 2.6 mg); format: functional
# Achaea janata [12] = test: Insecticidal activity against Achaea janata assessed as pupal mortality at 4 ug/larva administered through topical application; format: functional
# Achaea janata [13] = test: Insecticidal activity against Achaea janata assessed as larval mortality at 2 ug/larva administered through topical application; format: functional
# Achaea janata [14] = test: Insecticidal activity against Achaea janata assessed as larval mortality at 4 ug/larva administered through topical application; format: functional
# Achaea janata [15] = test: Antifeedant activity against Achaea janata at 2 ug/cm2 by conventional no-choice disk method; format: functional, organism-based
# Achaea janata [16] = test: Insecticidal activity against Achaea janata assessed as pupal weight at 2 ug/larva administered through topical application (reference value: 696.4 +/- 2.6 mg); format: functional
# Achaea janata [17] = test: Antifeedant activity against Achaea janata at 1 ug/cm2 by conventional no-choice disk method; format: functional, organism-based
# Achaea janata [18] = test: Insecticidal activity against Achaea janata assessed as pupal duration at 4 ug/larva administered through topical application (reference value: 10.3 +/- 0.1 days); format: functional
# Achaea janata [19] = test: Insecticidal activity against Achaea janata assessed as larval duration at 4 ug/larva administered through topical application (reference value: 7.3 +/- 0.1 days); format: functional
# Achaea janata [20] = test: Insecticidal activity against Achaea janata assessed as adult emergence at 4 ug/larva administered through topical application (reference value: 98.8 +/- 0.5 %); format: functional
# Achaea janata [21] = test: Antifeedant activity against Achaea janata at 1.25 ug/cm2 by conventional no-choice disk method; format: functional
# Achaea janata [22] = test: Insecticidal activity against Achaea janata assessed as larval mortality at 0.2 ug/larva administered through topical application; format: functional
# Achaea janata [23] = test: Toxicity against Achaea janata at 1.25 ug/cm2 after 24 hr by leaf disk method; format: functional
SMILES,Activity (Achaea janata [1]),Time (Achaea janata [2]),ED50 (Achaea janata [3]),LD50 (Achaea janata [4]),AFI (Achaea janata [5]),Activity (Achaea janata [6]),Time (Achaea janata [7]),Activity (Achaea janata [8]),Activity (Achaea janata [9]),mortality (Achaea janata [10]),Activity (Achaea janata [11]),mortality (Achaea janata [12]),mortality (Achaea janata [13]),mortality (Achaea janata [14]),AFI (Achaea janata [15]),Activity (Achaea janata [16]),AFI (Achaea janata [17]),Time (Achaea janata [18]),Time (Achaea janata [19]),Activity (Achaea janata [20]),further results
COc1c(CC=C(C)C)c2c(c(O)c1C(=O)C(=O)c1ccc(O)cc1)C=CC(C)(C)O2,34.5%,7.8 days,3.31 microg/cm2,3.56 microg/cm2,96.8%,19%,13 days,16.2%,100%,20%,515.4 mg,31.6%,15.1%,39.3%,inactive,524.4 mg,inactive,13.5 days,8.5 days,6.7%,
C/C=C(\C)C(=O)O[C@H]1C[C@@H](OC(C)=O)[C@@]2(C(=O)OC)CO[C@H]3[C@@H](O)[C@@](C)([C@]45O[C@@]4(C)[C@@H]4C[C@H]5O[C@@H]5OC=C[C@@]54O)[C@H]4[C@]1(CO[C@]4(O)C(=O)OC)[C@@H]32 [AZADIRACHTIN A],98.8%,,0.72 microg/cm2,0.67 microg/cm2,,0%,10.3 days,0%,,0%,696.4 mg,0%,,,,696.4 mg,,10.3 days,,98.8%,AFI (Achaea janata [21]): 100%; mortality (Achaea janata [22]): 100%; Activity (Achaea janata [23]): 100%
COc1c2c(c(CC=C(C)C)c(O)c1C(=O)C(=O)c1ccc(O)cc1)OC(C)(C)C=C2 [Derrisdione A],35.4%,9.3 days,7.18 microg/cm2,inactive,58.6%,21.1%,10.9 days,19.5%,18.2%,29.8%,597.8 mg,36.2%,0%,0%,inactive,592.6 mg,inactive,12.5 days,10.5 days,29.8%,
O=c1c(-c2ccc(O)cc2)coc2cc(O)cc(O)c12 [GENISTEIN],27%,7.8 days,3.22 microg/cm2,3.29 microg/cm2,97.7%,11.8%,13.1 days,10.6%,100%,17.2%,532 mg,22.5%,31%,48.6%,inactive,518 mg,inactive,,10.3 days,7.7%,
CC(C)=CCc1c2c(c(O)c3c(=O)cc(-c4ccc(O)cc4)oc13)C=CC(C)(C)O2 [LAXIFOLIN],59.6%,8.5 days,inactive,inactive,2.6%,2.3%,10.7 days,0%,0%,12%,552 mg,27.4%,20.6%,25.2%,inactive,567.2 mg,inactive,14.1 days,11.1 days,24.9%,
CC(C)=CCc1cc(-c2coc3cc(O)c(CC=C(C)C)c(O)c3c2=O)ccc1O [LUPALBIGENIN],62.7%,7.7 days,inactive,inactive,22.4%,9.1%,11.4 days,9.5%,0%,26.4%,587 mg,32.2%,0%,18.8%,inactive,612 mg,inactive,12.9 days,9.7 days,32.8%,
CC(C)=CCc1c2c(c3occ(-c4ccc(O)cc4)c(=O)c3c1O)C=CC(C)(C)O2 [OSAJIN],18%,10.4 days,3.18 microg/cm2,3.54 microg/cm2,100%,15.7%,13.8 days,10%,98.2%,47.8%,504.8 mg,45.6%,12.2%,33.4%,inactive,584.8 mg,inactive,15.5 days,11.2 days,2.9%,
COc1ccc(-c2c(O)c3c(OC)c(CC=C(C)C)c4c(c3oc2=O)C=CC(C)(C)O4)cc1 [SCANDENIN A],71.5%,9.3 days,inactive,inactive,4%,6.6%,10.5 days,0%,0%,19.8%,605 mg,32.8%,11.6%,15.2%,inactive,601.2 mg,inactive,10.5 days,11.1 days,31.5%,
COc1c(CC=C(C)C)c2c(c3oc(=O)c(-c4ccc(O)cc4)c(O)c13)C=CC(C)(C)O2 [SCANDENIN],75.3%,8.2 days,3.85 microg/cm2,5.28 microg/cm2,96.5%,10.9%,11.2 days,0%,86.4%,13.5%,514.2 mg,24.8%,0%,42.6%,inactive,550.8 mg,inactive,11.3 days,10.8 days,18.6%,
COc1c(CC=C(C)C)c2c(c3occ(-c4ccc(O)cc4)c(=O)c13)C=CC(C)(C)O2 [SCANDINONE],65.3%,8.2 days,inactive,inactive,1.3%,5.4%,11.8 days,3.5%,14.6%,13.6%,592 mg,23.4%,6.8%,17%,inactive,621.8 mg,inactive,12.5 days,10.5 days,34.2%,
C[C@@H]1O[C@@H](OC[C@H]2O[C@@H](Oc3cc(O)c4c(=O)c(-c5ccc(O)cc5)coc4c3)[C@H](O)[C@@H](O)[C@@H]2O)[C@H](O)[C@H](O)[C@H]1O [SPHAEROBIOSIDE],32.7%,10.8 days,3.37 microg/cm2,3.87 microg/cm2,96.2%,9.5%,13.3 days,0%,97.8%,36%,504.8 mg,41.2%,13%,31.8%,inactive,508.6 mg,inactive,14.4 days,11.3 days,7.5%,
CC(C)=CCc1c2c(c(O)c3c(=O)c(-c4ccc(O)cc4)coc13)C=CC(C)(C)O2 [WARANGALONE],63.6%,9.4 days,inactive,inactive,6.2%,11.8%,11.7 days,5.5%,6.8%,17.8%,572.6 mg,27.6%,0%,0%,inactive,633.2 mg,inactive,11.9 days,9.8 days,50.3%,
